What was measured:
Format in all cases: cell-based
human TLR7 = target: T1, human TLR7 (Homo sapiens, UniProt Q9NYK1); assay: TLR7 inhibition reporter assay (HEK-Blue cells, SEAP reporter, gardiquimod stimulation); settings: HEK-Blue cells overexpressing human TLR7, SEAP reporter, gardiquimod 7.5 μM; read-out: TLR7 IC50
T1 construct: host or cells: HEK-Blue cells
T1 sequence (Q9NYK1 27-1049): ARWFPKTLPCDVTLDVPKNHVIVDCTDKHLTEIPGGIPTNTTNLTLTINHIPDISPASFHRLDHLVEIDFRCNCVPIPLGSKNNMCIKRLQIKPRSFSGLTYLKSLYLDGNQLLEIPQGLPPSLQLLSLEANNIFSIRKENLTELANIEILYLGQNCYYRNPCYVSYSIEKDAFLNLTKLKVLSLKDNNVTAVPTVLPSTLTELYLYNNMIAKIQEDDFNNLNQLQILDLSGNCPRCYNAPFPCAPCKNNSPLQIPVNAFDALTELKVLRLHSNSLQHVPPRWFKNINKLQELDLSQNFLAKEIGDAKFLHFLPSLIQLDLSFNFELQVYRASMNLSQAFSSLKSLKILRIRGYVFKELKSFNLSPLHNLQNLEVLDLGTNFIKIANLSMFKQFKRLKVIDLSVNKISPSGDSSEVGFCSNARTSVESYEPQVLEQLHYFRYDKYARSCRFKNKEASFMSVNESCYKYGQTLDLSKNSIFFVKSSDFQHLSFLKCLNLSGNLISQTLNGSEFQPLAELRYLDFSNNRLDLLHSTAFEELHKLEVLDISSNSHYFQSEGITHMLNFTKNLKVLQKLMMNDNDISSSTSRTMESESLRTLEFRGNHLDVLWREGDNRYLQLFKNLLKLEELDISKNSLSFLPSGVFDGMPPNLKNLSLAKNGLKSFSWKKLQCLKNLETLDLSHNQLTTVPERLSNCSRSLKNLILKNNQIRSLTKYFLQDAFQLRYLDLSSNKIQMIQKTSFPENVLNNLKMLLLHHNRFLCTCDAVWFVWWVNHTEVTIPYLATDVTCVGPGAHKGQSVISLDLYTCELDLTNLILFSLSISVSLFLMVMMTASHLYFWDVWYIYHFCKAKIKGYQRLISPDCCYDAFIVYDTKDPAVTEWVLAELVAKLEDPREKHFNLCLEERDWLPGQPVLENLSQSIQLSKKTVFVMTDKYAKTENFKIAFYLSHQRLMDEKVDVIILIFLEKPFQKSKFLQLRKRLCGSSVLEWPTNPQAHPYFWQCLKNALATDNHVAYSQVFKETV
How it was run: (§1)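 Human TLR7/8/9 HEK-Blue reporter lines; dose range 0.05 nM–50 μM; 30 min RT preincubation; stimulus gardiquimod 7.5 μM / R848 15.9 μM / ODN2006 5 nM respectively; 22 h, 37 °C; SEAP detected colorimetrically.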

human TLR8 = target: T2, human TLR8 (Homo sapiens, UniProt Q9NR97); assay: TLR8 inhibition reporter assay (HEK-Blue cells, SEAP reporter, R848 stimulation); settings: HEK-Blue cells overexpressing human TLR8, SEAP reporter, R848 15.9 μM; read-out: TLR8 IC50
T2 construct: host or cells: HEK-Blue cells
T2 sequence (Q9NR97 27-1041): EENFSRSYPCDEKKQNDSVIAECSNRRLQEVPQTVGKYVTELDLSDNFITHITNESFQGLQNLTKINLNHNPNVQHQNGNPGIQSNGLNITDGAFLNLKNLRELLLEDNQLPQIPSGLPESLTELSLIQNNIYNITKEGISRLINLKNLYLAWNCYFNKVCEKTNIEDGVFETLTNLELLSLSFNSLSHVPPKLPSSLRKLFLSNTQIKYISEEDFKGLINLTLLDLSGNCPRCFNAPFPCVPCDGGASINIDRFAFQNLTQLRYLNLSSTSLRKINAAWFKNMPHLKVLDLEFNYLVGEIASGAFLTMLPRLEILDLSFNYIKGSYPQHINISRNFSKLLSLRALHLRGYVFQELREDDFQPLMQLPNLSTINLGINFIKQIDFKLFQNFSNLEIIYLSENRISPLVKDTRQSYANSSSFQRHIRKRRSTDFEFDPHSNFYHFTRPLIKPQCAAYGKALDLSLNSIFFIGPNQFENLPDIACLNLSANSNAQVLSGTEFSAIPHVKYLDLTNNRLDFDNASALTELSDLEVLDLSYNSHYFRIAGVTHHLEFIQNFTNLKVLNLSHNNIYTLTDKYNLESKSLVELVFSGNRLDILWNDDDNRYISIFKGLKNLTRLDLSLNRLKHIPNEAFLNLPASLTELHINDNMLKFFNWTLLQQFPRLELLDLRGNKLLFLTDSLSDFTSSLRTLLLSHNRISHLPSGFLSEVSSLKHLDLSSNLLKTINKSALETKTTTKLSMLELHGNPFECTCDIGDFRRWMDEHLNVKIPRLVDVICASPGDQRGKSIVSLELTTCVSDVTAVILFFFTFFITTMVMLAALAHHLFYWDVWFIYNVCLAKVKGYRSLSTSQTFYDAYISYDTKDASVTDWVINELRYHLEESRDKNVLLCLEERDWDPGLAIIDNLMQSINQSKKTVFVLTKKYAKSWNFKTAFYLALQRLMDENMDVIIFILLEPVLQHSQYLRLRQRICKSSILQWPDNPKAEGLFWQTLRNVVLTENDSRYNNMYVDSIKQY
How it was run: as §1

human TLR9 = target: T3, human TLR9 (Homo sapiens, UniProt Q9NR96); assay: TLR9 inhibition reporter assay (HEK-Blue cells, SEAP reporter, ODN2006 stimulation); settings: HEK-Blue cells overexpressing human TLR9, SEAP reporter, ODN2006 5 nM
T3 construct: host or cells: HEK-Blue cells
T3 sequence (Q9NR96 26-1032): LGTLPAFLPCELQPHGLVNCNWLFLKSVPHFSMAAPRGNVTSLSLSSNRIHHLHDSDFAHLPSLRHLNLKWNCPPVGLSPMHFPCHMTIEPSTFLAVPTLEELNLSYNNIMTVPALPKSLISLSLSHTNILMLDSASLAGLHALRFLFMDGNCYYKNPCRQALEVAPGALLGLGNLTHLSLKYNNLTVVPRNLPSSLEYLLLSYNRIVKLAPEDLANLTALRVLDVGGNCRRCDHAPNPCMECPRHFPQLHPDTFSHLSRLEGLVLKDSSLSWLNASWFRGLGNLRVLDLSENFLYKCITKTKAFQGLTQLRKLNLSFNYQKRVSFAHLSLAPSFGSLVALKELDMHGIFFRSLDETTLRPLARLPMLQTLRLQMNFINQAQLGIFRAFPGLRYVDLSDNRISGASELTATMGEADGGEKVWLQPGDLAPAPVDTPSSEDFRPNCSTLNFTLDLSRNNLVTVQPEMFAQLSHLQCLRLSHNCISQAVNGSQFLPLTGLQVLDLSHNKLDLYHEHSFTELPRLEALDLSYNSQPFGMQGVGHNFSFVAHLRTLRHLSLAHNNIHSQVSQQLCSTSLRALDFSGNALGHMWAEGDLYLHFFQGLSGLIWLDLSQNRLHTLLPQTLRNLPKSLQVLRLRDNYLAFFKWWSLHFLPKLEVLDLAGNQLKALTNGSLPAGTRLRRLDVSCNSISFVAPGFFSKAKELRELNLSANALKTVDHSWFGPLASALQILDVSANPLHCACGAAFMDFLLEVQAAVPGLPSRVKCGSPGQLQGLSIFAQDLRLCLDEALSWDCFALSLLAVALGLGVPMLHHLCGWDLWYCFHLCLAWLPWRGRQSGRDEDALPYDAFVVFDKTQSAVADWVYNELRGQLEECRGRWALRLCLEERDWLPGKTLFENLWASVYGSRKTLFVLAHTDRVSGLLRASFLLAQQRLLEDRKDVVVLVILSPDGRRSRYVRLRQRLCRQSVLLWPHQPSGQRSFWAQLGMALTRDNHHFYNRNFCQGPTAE
How it was run: as §1

Row | IC50 (human TLR7) [nM] | IC50 (human TLR8) [nM] | IC50 (human TLR9) [nM] | SMILES
1 | 1.69 | 4.36 | 42800 | Cc1cc(-c2[nH]c3sc(C4CCC(N5CC6(COC6)C5)CC4)nc3c2C(C)C)cn2ncnc12 (single isomer, unassigned) [Example 136, 6-(4-(6-isopropyl-5-(8-methyl-[1,2,4]triazolo[1,5-a]pyridin-6-yl)-4H-pyrrolo[3,2-d]thiazol-2-yl)cyclohexyl)-2-oxa-6-azaspiro[3.3]heptane]
2 | 3.4 | 40.8 | 6730 | Cc1cc(-c2[nH]c3sc(C4CCC(N5CC6(COC6)C5)CC4)nc3c2C(C)C)cn2ncnc12 (single isomer, unassigned) [Example 137, 6-(4-(6-isopropyl-5-(8-methyl-[1,2,4]triazolo[1,5-a]pyridin-6-yl)-4H-pyrrolo[3,2-d]thiazol-2-yl)cyclohexyl)-2-oxa-6-azaspiro[3.3]heptane]
3 | 0.93 | 3.96 | 14800 | Cc1cc(-c2[nH]c3sc(C4CCC(NC56CC(C5)C6)CC4)nc3c2C(C)C)cn2ncnc12 (single isomer, unassigned) [Example 138, N-(4-(6-isopropyl-5-(8-methyl-[1,2,4]triazolo[1,5-a]pyridin-6-yl)-4H-pyrrolo[3,2-d]thiazol-2-yl)cyclohexyl)bicyclo[1.1.1]pentan-1-amine]
4 | 4.96 | 26.3 | 17500 | Cc1cc(-c2[nH]c3sc(C4CCC(NC56CC(C5)C6)CC4)nc3c2C(C)C)cn2ncnc12 (single isomer, unassigned) [Example 139, N-(4-(6-isopropyl-5-(8-methyl-[1,2,4]triazolo[1,5-a]pyridin-6-yl)-4H-pyrrolo[3,2-d]thiazol-2-yl)cyclohexyl)bicyclo[1.1.1]pentan-1-amine]
5 | 0.59 | 0.89 | 10400 | Cc1cc(-c2[nH]c3sc(C4CCC(NCC(C)(C)O)CC4)nc3c2C(C)C)cn2ncnc12 (single isomer, unassigned) [Example 140, 1-((4-(6-isopropyl-5-(8-methyl-[1,2,4]triazolo[1,5-a]pyridin-6-yl)-4H-pyrrolo[3,2-d]thiazol-2-yl)cyclohexyl)amino)-2-methylpropan-2-ol]
6 | 3.03 | 13.5 | 12800 | Cc1cc(-c2[nH]c3sc(C4CCC(NCC(C)(C)O)CC4)nc3c2C(C)C)cn2ncnc12 (single isomer, unassigned) [Example 141, 1-((4-(6-isopropyl-5-(8-methyl-[1,2,4]triazolo[1,5-a]pyridin-6-yl)-4H-pyrrolo[3,2-d]thiazol-2-yl)cyclohexyl)amino)-2-methylpropan-2-ol]
7 | 2.08 | 2.7 | 6970 | Cc1cc(-c2[nH]c3sc(C4CCC(NCC5(CO)CC5)CC4)nc3c2C(C)C)cn2ncnc12 (single isomer, unassigned) [Example 142, (1-(((4-(6-isopropyl-5-(8-methyl-[1,2,4]triazolo[1,5-a]pyridin-6-yl)-4H-pyrrolo[3,2-d]thiazol-2-yl)cyclohexyl)amino)methyl)cyclopropyl)methanol]
8 | 5.34 | 19.6 | 9280 | Cc1cc(-c2[nH]c3sc(C4CCC(NCC5(CO)CC5)CC4)nc3c2C(C)C)cn2ncnc12 (single isomer, unassigned) [Example 143, (1-(((4-(6-isopropyl-5-(8-methyl-[1,2,4]triazolo[1,5-a]pyridin-6-yl)-4H-pyrrolo[3,2-d]thiazol-2-yl)cyclohexyl)amino)methyl)cyclopropyl)methanol]
9 | 7.26 | 3.56 | 15200 | Cc1cc2ncnn2cc1-c1[nH]c2sc(C3CCC(NC4(C)COC4)CC3)nc2c1C(C)C (single isomer, unassigned) [Example 144, N-(4-(6-isopropyl-5-(7-methyl-[1,2,4]triazolo[1,5-a]pyridin-6-yl)-4H-pyrrolo[3,2-d]thiazol-2-yl)cyclohexyl)-3-methyloxetan-3-amine]
